Values quoted from earlier work as cited in PMC2225439, “Amyloid as a Depot for the Formulation of Long-Acting Drugs” (PLoS Biology, 2008).
Where a SMILES comes first, the peptide text is derived from it. [ ]: non-standard residue; d: D form. The star is where a group is joined. dPhe(4-NHCONH2) = NC(=O)Nc1ccc(C[C@@H](N)C(=O)O)cc1; Dihydroorotyl(S) = O=C1C[C@@H](C(=O)*)NC(=O)N1; dPhe(4-Cl) = N[C@H](Cc1ccc(Cl)cc1)C(=O)O; Phe(4-NH2) = Nc1ccc(C[C@H](N)C(=O)O)cc1; d2Nal = N[C@H](Cc1ccc2ccccc2c1)C(=O)O; Lys(iPr) = CC(C)NCCCC[C@H](N)C(=O)O; d3Pal = N[C@H](Cc1cccnc1)C(=O)O

Test system: histamine release
Settings: cited from earlier work

In the case of `CC(=O)N[C@H](Cc1ccc2ccccc2c1)C(=O)N[C@H](Cc1ccc(Cl)cc1)C(=O)N[C@H](Cc1cccnc1)C(=O)N[C@@H](CO)C(=O)N[C@@H](Cc1ccc(NC(=O)[C@@H]2CC(=O)NC(=O)N2)cc1)C(=O)N[C@H](Cc1ccc(NC(N)=O)cc1)C(=O)N[C@@H](CC(C)C)C(=O)N[C@@H](CCCCNC(C)C)C(=O)N1CCC[C@H]1C(=O)N[C@H](C)C(N)=O` [L13, Ac-DNal-DCpa-DPal-Ser-Aph(LHor)-DAph(Cbm)-Leu-ILys-Pro-DAla-NH2] (Ac-[d2Nal][dPhe(4-Cl)][d3Pal]S[Phe(4-NH2)](Dihydroorotyl(S))[dPhe(4-NHCONH2)]L[Lys(iPr)]P[dA]-NH2), the “safety margin with regard to histamine release” value is given as “good safety margin”.
